{"source": "patent EP2931723B1", "about": "“NEW BICYCLIC COMPOUNDS AND THEIR USE AS ANTIBACTERIAL AGENTS AND -LACTAMASE INHIBITORS” (Fedora Pharmaceuticals Inc., priority 2012, dated 2014)", "assay_in_all_cases": "MIC, antibacterial and synergistic activity", "format_in_all_cases": "cell-based", "key": {"[1]": {"tested_on": "E. coli ATCC 25922", "conditions": "E. coli ATCC 25922 (Wt)"}, "[2]": {"tested_on": "A. baumanii JMI 2659", "conditions": "A. baumanii JMI 2659 (Ges-14 (Cpase))"}, "[3]": {"tested_on": "E.coli JMI 4103", "conditions": "E.coli JMI 4103 (KPC-2, Tem-1, CMY-Type)"}, "[4]": {"tested_on": "E. coli JMI 4080"}, "[5]": {"tested_on": "E. coli JMI 10768", "conditions": "E. coli JMI 10768 (CTX-M15 (Weak ESBL))", "protocol": "(§1) In the Tables 10 - 12, compounds herein disclosed were tested in combination with various antibiotics against metallo β-lactamase producing bacteria. Table 3: Synergy of the inhibitor Ex. 1 (4 µg/mL) in combination with antibiotics"}, "[6]": {"tested_on": "E. coli JMI 2665", "protocol": "as §1"}, "[7]": {"tested_on": "K. pneumo JMI 2673", "conditions": "K. pneumo JMI 2673 (CTX-M14 (ESBL))", "outline": "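Compounds were evaluated together with various antibiotics to measure synergistic antibacterial activity. For each combination, the minimum inhibitory concentration of the antibiotic was recorded while the inhibitor was present at a constant 4 µg/mL.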"}, "[8]": {"tested_on": "K. pneumo JMI 2699", "conditions": "K. pneumo JMI 2699 (VIM-1, CTX-M3)", "outline": "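Synergy testing: antibiotic MIC vs MBL-producing strains in presence of inhibitor, fixed 4 µg/mL.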"}, "[9]": {"tested_on": "K. pneumo JMI 4088", "conditions": "K. pneumo JMI 4088 (KPC-3 (Cpase))", "outline": "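Minimum inhibitory concentrations were measured for antibiotics given together with the test inhibitor, held at 4 µg/mL, against bacteria that produce β-lactamase. The purpose was to see whether the inhibitor restores or boosts antibacterial activity, that is, synergy with the antibiotic.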"}, "[10]": {"tested_on": "K.pneumo JMI 4109", "conditions": "K.pneumo JMI 4109 (SHV-1, SHV-12)", "outline": "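Antibacterial synergy was assessed by pairing each inhibitor compound, at a constant concentration of 4 µg/mL, with β-lactam antibiotics. The combinations were run against bacterial strains that produce β-lactamases, and the readout was the minimum inhibitory concentration of the antibiotic in the presence of the inhibitor.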"}, "[11]": {"tested_on": "K. pneumo JMI 4106", "conditions": "K. pneumo JMI 4106 (KPC-3, TEM-1, SHV-12, SHV-141)"}, "[12]": {"tested_on": "E. coli JMI 2692", "conditions": "E. coli JMI 2692 (NDM-1, TEM-1, CTX-M-15)", "protocol": "(§2) In the Tables 10 - 12, compounds herein disclosed were tested in combination with various antibiotics against metallo β-lactamase producing bacteria."}, "[13]": {"tested_on": "K. pneumo JMI 2693", "conditions": "K. pneumo JMI 2693 (NDM-1 (Cpase))", "protocol": "as §2"}, "[14]": {"tested_on": "K. pneumo JMI 2697", "conditions": "K. pneumo JMI 2697 (IMP-4 (Cpase))", "protocol": "as §2"}, "[15]": {"tested_on": "K.pneumo JMI 4109", "conditions": "K.pneumo JMI 4109 (SHV-1, SHV-12); substance alone"}, "[16]": {"tested_on": "K. pneumo JMI 2673", "conditions": "K. pneumo JMI 2673 (CTX-M14 (ESBL)); substance alone"}, "[17]": {"tested_on": "K. pneumo JMI 2674", "conditions": "K. pneumo JMI 2674 (CTX-M15 (ESBL)); substance alone"}, "[18]": {"tested_on": "K. pneumo JMI 4088", "conditions": "K. pneumo JMI 4088 (KPC-3 (Cpase)); substance alone"}, "[19]": {"tested_on": "P. aerug JMI 2686", "conditions": "P. aerug JMI 2686 (KPC-2 (Cpase)); substance alone"}, "[20]": {"tested_on": "E. coli JMI 10767", "conditions": "E. coli JMI 10767 (Wt)"}, "[21]": {"tested_on": "E. coli JMI 10768", "conditions": "E. coli JMI 10768 (CTX-M15 (Weak ESBL)); Meropenem + inhibitor at 4 µg/mL"}, "[22]": {"tested_on": "E. coli JMI 11103"}, "[23]": {"conditions": "Aztreonam + inhibitor at 4 µg/mL"}, "[24]": {"conditions": "Ceftazidime + inhibitor at 4 µg/mL"}, "[25]": {"conditions": "Meropenem + inhibitor at 4 µg/mL"}}}
{"smiles": "O=C(NO[C@H]1CCCNC1)[C@@H]1CC[C@@H]2CN1C(=O)N2OS(=O)(=O)O", "note": "[Ex. 2, (2S,5R)-7-Oxo-N-[(3S)-piperidin-3-yloxy] -6-(sulfooxy)-1,6-diazabicyclo[3.2.1]octane-2-carboxamide]", "values": [{"measurement": "MIC Aztreonam + inhibitor", "setting": "[1]; [23]", "value": "≤.062 µg/mL"}, {"measurement": "MIC Ceftazidime + inhibitor", "setting": "[1]; [24]", "value": "≤0.25", "unit": "µg/mL"}, {"measurement": "MIC Meropenem + inhibitor", "setting": "[1]; [25]", "value": "≤.031 µg/mL"}, {"measurement": "MIC", "setting": "[1]; Escherichia coli, ATCC25922, substance alone", "value": 1, "unit": "µg/mL"}, {"measurement": "MIC Aztreonam + inhibitor", "setting": "[2]; [23]", "value": ">4", "unit": "µg/mL"}, {"measurement": "MIC Ceftazidime + inhibitor", "setting": "[2]; [24]", "value": ">16", "unit": "µg/mL"}, {"measurement": "MIC Meropenem + inhibitor", "setting": "[2]; [25]", "value": ">2", "unit": "µg/mL"}, {"measurement": "MIC", "setting": "[2]; Acinetobacter baumannii, JMI2659, substance alone, read-out: MIC", "value": "> 16", "unit": "µg/mL"}, {"measurement": "MIC Aztreonam + inhibitor", "setting": "[3]; [23]", "value": ">4", "unit": "µg/mL"}, {"measurement": "MIC Ceftazidime + inhibitor", "setting": "[3]; [24]", "value": 8, "unit": "µg/mL"}, {"measurement": "MIC Meropenem + inhibitor", "setting": "[3]; [25]", "value": "≤.031 µg/mL"}, {"measurement": "MIC", "setting": "[3]; Escherichia coli, JMI4103, substance alone", "value": 8, "unit": "µg/mL"}, {"measurement": "MIC Aztreonam + inhibitor", "setting": "[4]; E. coli JMI 4080 (Tem-10), Aztreonam + inhibitor at 4 µg/mL", "value": "≤.062 µg/mL"}, {"measurement": "MIC Ceftazidime + inhibitor", "setting": "[4]; E. coli JMI 4080 (Tem-10), Ceftazidime + inhibitor at 4 µg/mL", "value": "≤0.25", "unit": "µg/mL"}, {"measurement": "MIC Meropenem + inhibitor", "setting": "[4]; E. coli JMI 4080 (Tem-10), Meropenem + inhibitor at 4 µg/mL", "value": "≤.031 µg/mL"}, {"measurement": "MIC", "setting": "[4]; Escherichia coli, JMI4080, E. coli JMI 4080 (Tem-10), substance alone", "value": 4, "unit": "µg/mL"}, {"measurement": "MIC Aztreonam + inhibitor", "setting": "[5]; [23]", "value": "≤.062 µg/mL"}, {"measurement": "MIC Ceftazidime + inhibitor", "setting": "[5]; [24]", "value": "≤0.25", "unit": "µg/mL"}, {"measurement": "MIC", "setting": "[5]; Escherichia coli, JMI10768, substance alone", "value": 4, "unit": "µg/mL"}, {"measurement": "MIC Aztreonam + inhibitor", "setting": "[6]; E. coli JMI 2665 (CMY-2 (Plasmid Cpase)), Aztreonam + inhibitor at 4 µg/mL", "value": "≤.062 µg/mL"}, {"measurement": "MIC Ceftazidime + inhibitor", "setting": "[6]; E. coli JMI 2665 (CMY-2 (Plasmid Cpase)), Ceftazidime + inhibitor at 4 µg/mL", "value": "≤0.25", "unit": "µg/mL"}, {"measurement": "MIC Meropenem + inhibitor", "setting": "[6]; E. coli JMI 2665 (CMY-2 (Plasmid Cpase)), Meropenem + inhibitor at 4 µg/mL", "value": "≤.031 µg/mL"}, {"measurement": "MIC", "setting": "[6]; Escherichia coli, JMI2665", "value": "≤ 0.5", "unit": "µg/mL"}, {"measurement": "MIC Aztreonam + inhibitor", "setting": "[7]; [23]", "value": "≤.062 µg/mL"}, {"measurement": "MIC Ceftazidime + inhibitor", "setting": "[7]; [24]", "value": "≤0.25", "unit": "µg/mL"}, {"measurement": "MIC Meropenem + inhibitor", "setting": "[7]; [25]", "value": "≤.031 µg/mL"}, {"measurement": "MIC Aztreonam + inhibitor", "setting": "[8]; [23]", "value": "≤.062 µg/mL"}, {"measurement": "MIC Ceftazidime + inhibitor", "setting": "[8]; [24]", "value": "≤0.25", "unit": "µg/mL"}, {"measurement": "MIC Meropenem + inhibitor", "setting": "[8]; [25]", "value": 0.062, "unit": "µg/mL"}, {"measurement": "MIC", "setting": "[8]; substance alone, read-out: MIC", "value": 4, "unit": "µg/mL"}, {"measurement": "MIC Aztreonam + inhibitor", "setting": "[9]; [23]", "value": 0.5, "unit": "µg/mL"}, {"measurement": "MIC Ceftazidime + inhibitor", "setting": "[9]; [24]", "value": "≤0.25", "unit": "µg/mL"}, {"measurement": "MIC Meropenem + inhibitor", "setting": "[9]; [25]", "value": 0.062, "unit": "µg/mL"}, {"measurement": "MIC Aztreonam + inhibitor", "setting": "[10]; [23]", "value": "≤.062 µg/mL"}, {"measurement": "MIC Ceftazidime + inhibitor", "setting": "[10]; [24]", "value": "≤0.25", "unit": "µg/mL"}, {"measurement": "MIC Meropenem + inhibitor", "setting": "[10]; [25]", "value": "≤.031 µg/mL"}, {"measurement": "MIC Aztreonam + inhibitor", "setting": "[11]; [23]", "value": "≤.062 µg/mL"}, {"measurement": "MIC Ceftazidime + inhibitor", "setting": "[11]; [24]", "value": "≤0.25", "unit": "µg/mL"}, {"measurement": "MIC Meropenem + inhibitor", "setting": "[11]; [25]", "value": "≤.031 µg/mL"}, {"measurement": "MIC", "setting": "[11]; substance alone, read-out: MIC", "value": "> 16", "unit": "µg/mL"}, {"measurement": "MIC Aztreonam + inhibitor", "setting": "[12]; [23]", "value": "≤.062 µg/mL"}, {"measurement": "MIC Ceftazidime + inhibitor", "setting": "[12]; [24]", "value": "≤0.25", "unit": "µg/mL"}, {"measurement": "MIC Meropenem + inhibitor", "setting": "[12]; [25]", "value": "≤.031 µg/mL"}, {"measurement": "MIC", "setting": "[12]; Escherichia coli, JMI2692, substance alone, read-out: MIC", "value": "≤ 0.5", "unit": "µg/mL"}, {"measurement": "MIC Aztreonam + inhibitor", "setting": "[13]; [23]", "value": "≤.062 µg/mL"}, {"measurement": "MIC Ceftazidime + inhibitor", "setting": "[13]; [24]", "value": "≤0.25", "unit": "µg/mL"}, {"measurement": "MIC Meropenem + inhibitor", "setting": "[13]; [25]", "value": "≤.031 µg/mL"}, {"measurement": "MIC", "setting": "[13]; substance alone", "value": 4, "unit": "µg/mL"}, {"measurement": "MIC Aztreonam + inhibitor", "setting": "[14]; [23]", "value": "≤.062 µg/mL"}, {"measurement": "MIC Ceftazidime + inhibitor", "setting": "[14]; [24]", "value": 0.5, "unit": "µg/mL"}, {"measurement": "MIC Meropenem + inhibitor", "setting": "[14]; [25]", "value": "≤.031 µg/mL"}, {"measurement": "MIC", "setting": "[14]; substance alone", "value": 4, "unit": "µg/mL"}, {"measurement": "MIC", "setting": "[15]", "value": 16, "unit": "µg/mL"}, {"measurement": "MIC", "setting": "[16]", "value": "> 16", "unit": "µg/mL"}, {"measurement": "MIC", "setting": "[17]", "value": "> 16", "unit": "µg/mL"}, {"measurement": "MIC", "setting": "[18]", "value": 1, "unit": "µg/mL"}, {"measurement": "MIC", "setting": "[19]", "value": "> 16", "unit": "µg/mL"}, {"measurement": "MIC Meropenem + inhibitor", "setting": "[20]; [25]", "value": "≤.031 µg/mL"}, {"measurement": "MIC", "setting": "[20]; Escherichia coli, JMI10767, substance alone", "value": 4, "unit": "µg/mL"}, {"measurement": "MIC Meropenem + inhibitor", "setting": "[21]", "value": "≤.031 µg/mL"}, {"measurement": "MIC Aztreonam + inhibitor", "setting": "[22]; E. coli JMI 11103 (CTX-M15 (Intermediate ESBL)), Aztreonam + inhibitor at 4 µg/mL", "value": "≤.062 µg/mL"}, {"measurement": "MIC Ceftazidime + inhibitor", "setting": "[22]; E. coli JMI 11103 (CTX-M15 (Intermediate ESBL)), Ceftazidime + inhibitor at 4 µg/mL", "value": "≤0.25", "unit": "µg/mL"}, {"measurement": "MIC Meropenem + inhibitor", "setting": "[22]; E. coli JMI 11103 (CTX-M15 (Intermediate ESBL)), Meropenem + inhibitor at 4 µg/mL", "value": "≤.031 µg/mL"}, {"measurement": "MIC", "setting": "[22]; Escherichia coli, JMI11103, E. coli JMI 11103 (CTX-M15 (Intermediate ESBL)), substance alone", "value": 4, "unit": "µg/mL"}]}
